Biological target: T1, human IDO1 (Homo sapiens, UniProt P14902)
T1 construct: expressed in transfected cells
Assay: IDO inhibition assay in HEK293 cells stably expressing human IDO1 (kynurenine production, Ehrlich reagent, absorbance 490 nm)
Type: cell-based
Details: 20 hours incubation with compound, 500 nM reference standard = 100% inhibition, read-out: IDO1 HEK Human IC50
Method in brief: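 HEK293 clones stably expressing human IDO1 (10,000 cells/well, phenol red-free RPMI, 10% FBS) were treated with compound for 20 hours at 37° C. After 0.2% TCA and 30 min at 50° C., kynurenine was read with Ehrlich reagent at 490 nm. IC50 was normalised to DMSO (0%) and 500 nM reference standard (100%).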

T1 sequence (P14902 whole entry): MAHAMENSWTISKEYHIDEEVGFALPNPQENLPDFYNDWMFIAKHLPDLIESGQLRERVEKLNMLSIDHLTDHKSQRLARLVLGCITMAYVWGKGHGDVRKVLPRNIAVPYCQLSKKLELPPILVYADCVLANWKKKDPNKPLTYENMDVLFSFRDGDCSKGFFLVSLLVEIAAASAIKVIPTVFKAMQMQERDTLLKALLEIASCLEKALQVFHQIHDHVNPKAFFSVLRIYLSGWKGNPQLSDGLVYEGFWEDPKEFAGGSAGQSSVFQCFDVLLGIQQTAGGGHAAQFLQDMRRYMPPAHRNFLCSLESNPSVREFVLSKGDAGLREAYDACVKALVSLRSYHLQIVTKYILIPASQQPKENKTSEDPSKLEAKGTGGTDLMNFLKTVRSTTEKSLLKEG

**Q.** With `CCCN(Cc1ccccc1)c1cc(NC(=O)Nc2ccccc2F)cc(-c2ccccc2-c2nnn[nH]2)n1` [Example 262, 1-(2-(2-(1H-tetrazol-5-yl)phenyl)-6-(benzyl(propyl)amino)pyridin-4-yl)-3-(2-fluorophenyl)urea] as the compound, how does the IC50 read?
**A.** 105 nM

**Q.** `CCCN(Cc1ccccc1)c1cc(NC(=O)Nc2cc(C)cc(C)c2)cc(-c2ccccc2-c2nnn[nH]2)n1` [Example 263, 1-(2-(2-(1H-tetrazol-5-yl)phenyl)-6-(benzyl(propyl)amino)pyridin-4-yl)-3-(3,5-dimethylphenyl)urea] was tested. Which IC50 did it give?
**A.** 145 nM

**Q.** `CCCCNC(=O)Nc1cc(-c2ccccc2-c2nnn[nH]2)nc(N(CCC)Cc2ccccc2)c1` [Example 264, 1-(2-(2-(1H-tetrazol-5-yl)phenyl)-6-(benzyl(propyl)amino)pyridin-4-yl)-3-butylurea] was tested. Which IC50 did it give?
**A.** 1800 nM

**Q.** Which IC50 does the source give for `CCCN(Cc1ccccc1)c1cc(NC(=O)Nc2ccc(C(F)(F)F)cc2F)cc(-c2ccccc2-c2nnn[nH]2)n1` [Example 265, 1-(2-(2-(1H-tetrazol-5-yl)phenyl)-6-(benzyl(propyl)amino)pyridin-4-yl)-3-(2-fluoro-4-(trifluoromethyl)phenyl)urea] here?
**A.** 43.3 nM

**Q.** With `CCCN(Cc1ccccc1)c1cc(NC(=O)Nc2cc(C)no2)cc(-c2ccccc2-c2nnn[nH]2)n1` [Example 266, 1-(2-(2-(1H-tetrazol-5-yl)phenyl)-6-(benzyl(propyl)amino)pyridin-4-yl)-3-(3-methylisoxazol-5-yl)urea] as the compound, how does the IC50 read?
**A.** 2700 nM

**Q.** Which IC50 does the source give for `CCCN(Cc1ccccc1)c1cc(NC(=O)Nc2ccc(C)nc2)cc(-c2ccccc2-c2nnn[nH]2)n1` [Example 267, 1-(2-(2-(1H-tetrazol-5-yl)phenyl)-6-(benzyl(propyl)amino)pyridin-4-yl)-3-(6-methylpyridin-3-yl)urea] here?
**A.** 1360 nM

**Q.** How did the IC50 turn out when `CCCN(Cc1ccccc1)c1cc(NC(=O)Nc2ccc(OC(F)(F)F)cc2)cc(-c2ccccc2-c2nnn[nH]2)n1` [Example 268, 1-(2-(2-(1H-tetrazol-5-yl)phenyl)-6-(benzyl(propyl)amino)pyridin-4-yl)-3-(4-(trifluoromethoxy)phenyl)urea] was run?
**A.** 30.2 nM

**Q.** How did the IC50 turn out when `CCCN(Cc1ccccc1)c1cc(NC(=O)Nc2ccc(OC(F)F)cc2)cc(-c2ccccc2-c2nnn[nH]2)n1` [Example 271, 1-(2-(2-(1H-tetrazol-5-yl)phenyl)-6-(benzyl(propyl)amino)pyridin-4-yl)-3-(4-(difluoromethoxy)phenyl)urea] was run?
**A.** 46.3 nM

**Q.** Which IC50 does the source give for `O=C(Nc1ccc(OC(F)(F)F)cc1)Nc1cc(-c2ccccc2-c2nnn[nH]2)nc(N(Cc2ccccc2)Cc2ccccc2)c1` [Example 273, 1-(2-(2-(1H-Tetrazol-5-yl)phenyl)-6-(dibenzylamino)pyridin-4-yl)-3-(4-(trifluoromethoxy)-phenyl)urea] here?
**A.** 609 nM

**Q.** For `CCN(Cc1ccccc1)c1cc(NC(=O)Nc2ccc(C)cc2)cc(-c2ccccc2-c2nnn[nH]2)n1` [Example 274, 1-(2-(2-(1H-Tetrazol-5-yl)phenyl)-6-(benzyl(ethyl)amino)pyridin-4-yl)-3-(p-tolyl)urea], which IC50 is on record?
**A.** 26.8 nM

**Q.** With `CCN(Cc1ccccc1)c1cc(NC(=O)Nc2ccc(Cl)cc2F)cc(-c2ccccc2-c2nnn[nH]2)n1` [Example 275] as the compound, how does the IC50 read?
**A.** 26.6 nM

**Q.** For `CCN(Cc1ccccc1)c1cc(NC(=O)Nc2ccc(C(F)(F)F)cc2)cc(-c2ccccc2-c2nnn[nH]2)n1` [Example 276], which IC50 is on record?
**A.** 148 nM

**Q.** `CCN(Cc1ccccc1)c1cc(NC(=O)Nc2ccc(OC(F)(F)F)cc2)cc(-c2ccccc2-c2nnn[nH]2)n1` [Example 277] was tested. Which IC50 did it give?
**A.** 782 nM

**Q.** With `CCN(Cc1ccccc1)c1cc(NC(=O)Nc2ccc3c(c2)OCO3)cc(-c2ccccc2-c2nnn[nH]2)n1` [Example 278] as the compound, how does the IC50 read?
**A.** 478 nM

**Q.** `CCOc1ccc(NC(=O)Nc2cc(-c3ccccc3-c3nnn[nH]3)nc(N(CC)Cc3ccccc3)c2)cc1` [Example 279] was tested. Which IC50 did it give?
**A.** 537 nM

**Q.** How did the IC50 turn out when `CCN(Cc1ccccc1)c1cc(NC(=O)Nc2ccc(OC(F)F)cc2)cc(-c2ccccc2-c2nnn[nH]2)n1` [Example 280] was run?
**A.** 554 nM

**Q.** `CCN(Cc1ccccc1)c1cc(NC(=O)Nc2ccc(Cl)cc2Cl)cc(-c2ccccc2-c2nnn[nH]2)n1` [Example 281] was tested. Which IC50 did it give?
**A.** 13.7 nM
